Results published in patent US12064438B2, “Pharmaceutical preparation excellent in light stability and dissolution property” (priority 2017, dated 2024).

Key:
influenza virus [1] = assay: Clinical test: randomized, placebo-controlled, double-blind study, time to alleviation of influenza symptoms (10, 20, 40 mg); assay type: in vivo, human
influenza virus [2] = assay type: in vivo, human; conditions: 20 to younger than 65 years old, Compound II-6 single 40 or 80 mg, Oseltamivir 75 mg twice a day for 5 days
[3] = for Adverse events the causal relationship of which cannot be denied, number of episodes: Compound II-6 610 patients, Oseltamivir 513 patients; for Adverse events the causal relationship of which cannot be denied, proportion of patients: Compound II-6 single 40 or 80 mg, Oseltamivir 75 mg twice a day for 5 days
Excerpt: The number of side-effect episodes and the number of patients with side effect were counted for each administration group.

[4] = single oral 20 mg, Cox proportional hazard model relative to placebo
[5] = single oral 40 mg, baseline symptom moderate or severe

SMILES	Time until muscular or joint pain symptom is alleviated, Hazard ratio (influenza virus [1]; single oral 10 mg, Cox proportional hazard model relative to placebo)	Time to alleviation of influenza symptoms, Hazard ratio (influenza virus [1]; [4])	Time until nasal congestion symptom is alleviated, Hazard ratio (influenza virus [1]; [4])	median time until muscular or joint pain was improved, shorter in the 40 mg administered group than the placebo group (influenza virus [1]; single oral 40 mg)	median time until nasal congestion was improved, shorter in the 40 mg administered group than the placebo group (influenza virus [1]; single oral 40 mg)	Time until feverishness or chills symptom is alleviated, Hazard ratio (influenza virus [1]; single oral 40 mg, Cox proportional hazard model relative to placebo)	Time until muscular or joint pain symptom is alleviated, Difference from placebo (influenza virus [1]; [5])	Time until nasal congestion symptom is alleviated, Difference from placebo (influenza virus [1]; [5])	time to termination of viral shedding based on virus titer (influenza virus [2])	Amount of change in virus titer from baseline, Mean (influenza virus [2]; Day 5)	Adverse events the causal relationship of which cannot be denied, number of episodes [3]	Adverse events the causal relationship of which cannot be denied, proportion of patients [3]	Severe adverse events the causal relationship of which cannot be denied ([3]; human, in vivo)
COC(=O)OCOc1c2n(ccc1=O)N([C@@H]1c3ccccc3SCc3c1ccc(F)c3F)[C@@H]1COCCN1C2=O [Compound II-6]	0.77	0.81	0.59	16.4 h	21.0 h	0.71	-16.4 h	-21 h	24.0 h	−4.95 log10 [TCID50/mL]	37 episodes	4.4%	not reported
CCOC(=O)C1=C[C@@H](OC(CC)CC)[C@H](NC(C)=O)[C@@H](N)C1 [Oseltamivir, reference compound]									72.0 h		53 episodes	8.4%	
